Measured values as given in US20130102627A1, “Acridines As Inhibitors Of Haspin And DYRK Kinases” (THE BRIGHAM AND WOMEN'S HOSPITAL, INC., priority 2010, published 2013).

How the values were obtained:
Type in all cases: biochemical
ROS = ROS (Homo sapiens, UniProt P08922); assay: Kinase profile panel IC50
HIPK2 = HIPK2 (Homo sapiens, UniProt Q9H2X6); assay: Kinase profile panel IC50
PIM2 = PIM2 (Homo sapiens, UniProt Q9P1W9); assay: Kinase profile panel IC50
TRKB = TRKB (Homo sapiens, UniProt Q16620); assay: Kinase profile panel IC50
HIPK1 = HIPK1 (Homo sapiens, UniProt Q86Z02); assay: Kinase profile panel IC50
haspin = target: T1, haspin (Homo sapiens, UniProt Q8TF76); assay: Carna Bioscience haspin assay
T1 construct: purchased Carna Bioscience (vendor's assay)
T1 sequence (Q8TF76 1-798): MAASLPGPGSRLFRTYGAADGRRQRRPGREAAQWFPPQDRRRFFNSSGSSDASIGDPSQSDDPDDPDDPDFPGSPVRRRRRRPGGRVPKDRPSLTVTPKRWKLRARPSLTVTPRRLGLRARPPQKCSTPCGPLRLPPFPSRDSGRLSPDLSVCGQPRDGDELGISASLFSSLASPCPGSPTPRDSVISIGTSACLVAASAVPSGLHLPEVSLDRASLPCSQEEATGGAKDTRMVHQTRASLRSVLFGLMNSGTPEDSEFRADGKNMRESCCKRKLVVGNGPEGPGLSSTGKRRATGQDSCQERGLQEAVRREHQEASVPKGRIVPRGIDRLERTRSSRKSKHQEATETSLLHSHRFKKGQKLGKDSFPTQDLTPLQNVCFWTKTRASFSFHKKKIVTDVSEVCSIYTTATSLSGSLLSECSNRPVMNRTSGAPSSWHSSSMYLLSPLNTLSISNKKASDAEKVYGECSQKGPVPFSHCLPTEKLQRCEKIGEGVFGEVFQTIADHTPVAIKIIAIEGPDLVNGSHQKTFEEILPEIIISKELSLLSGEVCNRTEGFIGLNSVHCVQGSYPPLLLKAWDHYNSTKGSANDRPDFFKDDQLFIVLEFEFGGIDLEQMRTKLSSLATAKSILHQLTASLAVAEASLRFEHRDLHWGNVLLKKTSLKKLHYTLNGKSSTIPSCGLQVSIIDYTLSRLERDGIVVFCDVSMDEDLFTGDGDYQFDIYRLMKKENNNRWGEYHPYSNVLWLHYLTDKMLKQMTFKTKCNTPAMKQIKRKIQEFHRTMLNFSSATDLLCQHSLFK

[1] = test system: panel of two hundred and seventy kinases; assay: Functional inhibition profiling against kinase panel at 10 μM; settings: panel of 270 kinases
PIM1 = PIM1 (Homo sapiens, UniProt P11309); assay: Kinase profile panel IC50
human DYRK2 (GST-DYRK2) = target: T2, human DYRK2 (GST-DYRK2) (Homo sapiens, UniProt Q92630); assay: DYRK2 inhibitor assay (33P incorporation into Woodtide peptide); settings: for IC50: DYRK2 assay of Example 7; for DYRK2 inhibitory activity (SAR, in words): compared with LDN-192960
T2 construct: purchased Carna Biosciences, Japan
T2 sequence (Q92630 1-601): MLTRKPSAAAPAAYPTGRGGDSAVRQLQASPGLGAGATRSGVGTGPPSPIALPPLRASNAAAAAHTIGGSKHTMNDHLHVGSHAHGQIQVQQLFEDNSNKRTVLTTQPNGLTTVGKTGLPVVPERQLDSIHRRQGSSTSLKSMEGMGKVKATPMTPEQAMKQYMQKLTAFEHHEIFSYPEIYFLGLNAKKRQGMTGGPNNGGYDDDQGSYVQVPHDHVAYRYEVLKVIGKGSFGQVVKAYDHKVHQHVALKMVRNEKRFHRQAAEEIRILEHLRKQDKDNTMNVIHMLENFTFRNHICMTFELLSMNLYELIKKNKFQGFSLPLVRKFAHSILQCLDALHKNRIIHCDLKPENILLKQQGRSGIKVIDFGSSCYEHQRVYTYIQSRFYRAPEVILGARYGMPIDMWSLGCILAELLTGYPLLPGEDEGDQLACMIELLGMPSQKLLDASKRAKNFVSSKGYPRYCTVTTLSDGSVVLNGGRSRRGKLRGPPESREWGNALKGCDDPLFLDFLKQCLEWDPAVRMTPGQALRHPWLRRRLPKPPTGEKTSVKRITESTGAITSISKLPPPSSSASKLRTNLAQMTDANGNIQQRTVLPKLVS
Procedure: Reactions were stopped after 10 minutes by addition of 30 mM EDTA followed by spotting 10 μl of the reaction mix on to P81 phosphocellulose filter (Whatman). […] Background level of ^33P incorporation was defined from control reaction lacking peptide.
(§1) The human haspin kinase inhibitory activity of the various compounds was evaluated using the same assay utilized for the HTS, except in the presence of varying test compound concentrations. DYRK2 kinase inhibitory activity was measured by ^33P-incorporation into Woodtide peptide substrate in the presence of human DYRK2 containing an N-terminal GST-fusion protein and γ^33P-ATP.

[2] = target: T3, human Haspin (MBP-Haspin) (Homo sapiens, UniProt Q8TF76); assay: TR-FRET Haspin assay; settings: for haspin inhibitory activity (SAR, in words): compared with LDN-192960
T3 construct: This full-length Haspin gene was cloned into the pMALc2E vector; made in house; host or cells: E. coli Rosetta2(DE3)pLysS
T3 sequence (Q8TF76 1-798): T1 sequence (Q8TF76 1-798)
Description: To identify Haspin inhibitors by high throughput screening, a homogeneous kinase assay based on time-resolved fluorescence resonance energy transfer (TR-FRET) was designed. […] Such TR-FRET assays use a lanthanide donor species conjugated to a phospho-specific antibody that binds specifically to the product of kinase reaction labeled with an acceptor fluorophore. This induced proximity of the donor and acceptor fluorophores leads to resonance energy transfer, resulting in a detectable increase of TR-FRET signal.
In the assay described below, a Europium chelate, conjugated to an anti-Histone H3T3ph antibody, as the donor species was used. The acceptor fluorophore, allophycocyanin (APC) was used as a streptavidin conjugate that could bind to a biotinylated Histone H3 peptide substrate. […] Lanthanide ions like Europium have a much longer emission lifetime, often measured in hundreds of microseconds, compared with traditional organic reagents that have lifetimes measured on the scale of […]. TR-FRET assays are thus less susceptible to compound interference generated by short-lived compound or matrix component fluorescence. Furthermore, TR-FRET can be carried out in a homogeneous format that avoids time-consuming separation steps that introduce variability. Based on these properties TR-FRET based assay kinases have been widely used in high throughput screening.
The reaction was incubated for 10 minutes at room temperature. Reaction was terminated by the addition of 10 μl 50 mM EDTA, 2 nM Europium labeled anti-Histone H3T3ph antibody, 40 nM Streptavidin-APC.
Data were analyzed using GraphPad Prism Version 4 (GraphPad Software Inc, La Jolla, Calif.). No inhibitor (“MAX”) and Staurosporine inhibitor (“MIN”) controls were used to calculate Z′ values and signal to background ratios during the high throughput screen. […] Km concentrations were also determined by non-linear regression.
as §1

Sequence of HIPK1 (Q86Z02 whole entry, species assumed): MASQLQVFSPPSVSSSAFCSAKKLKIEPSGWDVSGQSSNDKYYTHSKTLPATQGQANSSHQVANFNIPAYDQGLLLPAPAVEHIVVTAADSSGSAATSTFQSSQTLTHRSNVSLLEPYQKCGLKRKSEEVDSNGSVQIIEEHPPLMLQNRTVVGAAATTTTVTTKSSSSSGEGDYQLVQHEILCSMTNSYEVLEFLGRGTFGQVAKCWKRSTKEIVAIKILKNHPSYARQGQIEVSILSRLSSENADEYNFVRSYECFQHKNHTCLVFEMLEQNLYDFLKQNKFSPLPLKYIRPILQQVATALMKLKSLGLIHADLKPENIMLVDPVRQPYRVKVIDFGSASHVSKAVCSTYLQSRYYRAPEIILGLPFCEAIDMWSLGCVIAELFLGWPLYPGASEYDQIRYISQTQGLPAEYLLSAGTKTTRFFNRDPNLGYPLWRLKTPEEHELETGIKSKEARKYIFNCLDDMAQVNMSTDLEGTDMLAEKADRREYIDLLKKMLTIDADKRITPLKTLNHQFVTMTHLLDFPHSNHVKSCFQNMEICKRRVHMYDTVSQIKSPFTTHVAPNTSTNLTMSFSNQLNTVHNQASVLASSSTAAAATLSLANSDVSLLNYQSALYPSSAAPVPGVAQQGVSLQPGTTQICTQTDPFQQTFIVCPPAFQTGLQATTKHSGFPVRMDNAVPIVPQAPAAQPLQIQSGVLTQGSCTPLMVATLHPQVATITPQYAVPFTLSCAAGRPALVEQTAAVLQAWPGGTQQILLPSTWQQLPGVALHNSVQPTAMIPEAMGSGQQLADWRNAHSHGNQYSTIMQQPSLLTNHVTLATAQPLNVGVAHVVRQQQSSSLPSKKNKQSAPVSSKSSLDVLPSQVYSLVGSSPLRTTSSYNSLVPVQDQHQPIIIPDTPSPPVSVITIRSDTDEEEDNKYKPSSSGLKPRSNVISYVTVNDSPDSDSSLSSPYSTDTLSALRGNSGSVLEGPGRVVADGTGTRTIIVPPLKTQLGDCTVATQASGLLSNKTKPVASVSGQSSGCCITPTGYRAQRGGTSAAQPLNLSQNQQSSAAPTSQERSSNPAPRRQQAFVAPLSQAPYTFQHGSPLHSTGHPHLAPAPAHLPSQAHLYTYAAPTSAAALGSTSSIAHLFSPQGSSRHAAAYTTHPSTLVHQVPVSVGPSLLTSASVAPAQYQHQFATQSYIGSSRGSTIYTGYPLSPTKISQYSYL
Sequence of HIPK2 (Q9H2X6 whole entry, species assumed): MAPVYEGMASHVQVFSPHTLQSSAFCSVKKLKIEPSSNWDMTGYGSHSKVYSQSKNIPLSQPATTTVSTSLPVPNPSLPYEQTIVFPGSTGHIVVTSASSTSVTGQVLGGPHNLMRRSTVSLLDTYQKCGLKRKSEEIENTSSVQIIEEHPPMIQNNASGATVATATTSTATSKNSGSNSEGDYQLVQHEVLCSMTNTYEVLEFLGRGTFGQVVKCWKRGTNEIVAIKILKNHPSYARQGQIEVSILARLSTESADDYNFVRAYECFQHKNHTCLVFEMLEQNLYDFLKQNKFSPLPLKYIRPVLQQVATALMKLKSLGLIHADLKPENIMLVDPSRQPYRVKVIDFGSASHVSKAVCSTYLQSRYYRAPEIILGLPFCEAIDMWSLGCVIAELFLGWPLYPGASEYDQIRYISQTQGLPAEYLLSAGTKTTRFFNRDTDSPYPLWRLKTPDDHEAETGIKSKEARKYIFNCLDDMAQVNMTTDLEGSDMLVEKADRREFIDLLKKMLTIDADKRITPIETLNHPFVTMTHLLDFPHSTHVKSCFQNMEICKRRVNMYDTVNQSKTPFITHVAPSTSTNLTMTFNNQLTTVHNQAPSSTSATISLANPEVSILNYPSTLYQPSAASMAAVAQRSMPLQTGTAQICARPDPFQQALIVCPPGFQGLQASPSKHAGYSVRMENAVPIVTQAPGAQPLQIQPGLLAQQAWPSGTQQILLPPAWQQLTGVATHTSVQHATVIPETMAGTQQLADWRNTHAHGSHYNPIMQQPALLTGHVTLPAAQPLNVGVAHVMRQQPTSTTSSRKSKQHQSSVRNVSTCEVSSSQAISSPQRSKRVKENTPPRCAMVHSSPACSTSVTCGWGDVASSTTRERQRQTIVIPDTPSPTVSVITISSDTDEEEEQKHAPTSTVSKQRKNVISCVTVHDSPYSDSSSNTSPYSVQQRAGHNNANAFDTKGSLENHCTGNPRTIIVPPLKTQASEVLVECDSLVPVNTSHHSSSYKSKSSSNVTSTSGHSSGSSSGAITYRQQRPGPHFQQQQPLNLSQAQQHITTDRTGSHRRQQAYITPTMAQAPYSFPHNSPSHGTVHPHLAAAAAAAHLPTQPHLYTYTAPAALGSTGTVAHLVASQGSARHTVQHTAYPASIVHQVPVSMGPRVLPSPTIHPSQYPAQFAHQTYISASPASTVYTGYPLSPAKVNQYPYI
Sequence of PIM2 (Q9P1W9 whole entry, species assumed): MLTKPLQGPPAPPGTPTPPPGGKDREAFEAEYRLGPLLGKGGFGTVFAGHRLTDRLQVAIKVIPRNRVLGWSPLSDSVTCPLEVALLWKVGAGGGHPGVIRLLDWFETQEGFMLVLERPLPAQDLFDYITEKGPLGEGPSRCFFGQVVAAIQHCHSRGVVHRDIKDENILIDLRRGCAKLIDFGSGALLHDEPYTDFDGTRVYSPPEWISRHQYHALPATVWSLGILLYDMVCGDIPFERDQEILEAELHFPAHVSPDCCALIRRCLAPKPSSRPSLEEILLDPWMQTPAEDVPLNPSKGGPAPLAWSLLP
Sequence of ROS (P08922 28-2347, species assumed): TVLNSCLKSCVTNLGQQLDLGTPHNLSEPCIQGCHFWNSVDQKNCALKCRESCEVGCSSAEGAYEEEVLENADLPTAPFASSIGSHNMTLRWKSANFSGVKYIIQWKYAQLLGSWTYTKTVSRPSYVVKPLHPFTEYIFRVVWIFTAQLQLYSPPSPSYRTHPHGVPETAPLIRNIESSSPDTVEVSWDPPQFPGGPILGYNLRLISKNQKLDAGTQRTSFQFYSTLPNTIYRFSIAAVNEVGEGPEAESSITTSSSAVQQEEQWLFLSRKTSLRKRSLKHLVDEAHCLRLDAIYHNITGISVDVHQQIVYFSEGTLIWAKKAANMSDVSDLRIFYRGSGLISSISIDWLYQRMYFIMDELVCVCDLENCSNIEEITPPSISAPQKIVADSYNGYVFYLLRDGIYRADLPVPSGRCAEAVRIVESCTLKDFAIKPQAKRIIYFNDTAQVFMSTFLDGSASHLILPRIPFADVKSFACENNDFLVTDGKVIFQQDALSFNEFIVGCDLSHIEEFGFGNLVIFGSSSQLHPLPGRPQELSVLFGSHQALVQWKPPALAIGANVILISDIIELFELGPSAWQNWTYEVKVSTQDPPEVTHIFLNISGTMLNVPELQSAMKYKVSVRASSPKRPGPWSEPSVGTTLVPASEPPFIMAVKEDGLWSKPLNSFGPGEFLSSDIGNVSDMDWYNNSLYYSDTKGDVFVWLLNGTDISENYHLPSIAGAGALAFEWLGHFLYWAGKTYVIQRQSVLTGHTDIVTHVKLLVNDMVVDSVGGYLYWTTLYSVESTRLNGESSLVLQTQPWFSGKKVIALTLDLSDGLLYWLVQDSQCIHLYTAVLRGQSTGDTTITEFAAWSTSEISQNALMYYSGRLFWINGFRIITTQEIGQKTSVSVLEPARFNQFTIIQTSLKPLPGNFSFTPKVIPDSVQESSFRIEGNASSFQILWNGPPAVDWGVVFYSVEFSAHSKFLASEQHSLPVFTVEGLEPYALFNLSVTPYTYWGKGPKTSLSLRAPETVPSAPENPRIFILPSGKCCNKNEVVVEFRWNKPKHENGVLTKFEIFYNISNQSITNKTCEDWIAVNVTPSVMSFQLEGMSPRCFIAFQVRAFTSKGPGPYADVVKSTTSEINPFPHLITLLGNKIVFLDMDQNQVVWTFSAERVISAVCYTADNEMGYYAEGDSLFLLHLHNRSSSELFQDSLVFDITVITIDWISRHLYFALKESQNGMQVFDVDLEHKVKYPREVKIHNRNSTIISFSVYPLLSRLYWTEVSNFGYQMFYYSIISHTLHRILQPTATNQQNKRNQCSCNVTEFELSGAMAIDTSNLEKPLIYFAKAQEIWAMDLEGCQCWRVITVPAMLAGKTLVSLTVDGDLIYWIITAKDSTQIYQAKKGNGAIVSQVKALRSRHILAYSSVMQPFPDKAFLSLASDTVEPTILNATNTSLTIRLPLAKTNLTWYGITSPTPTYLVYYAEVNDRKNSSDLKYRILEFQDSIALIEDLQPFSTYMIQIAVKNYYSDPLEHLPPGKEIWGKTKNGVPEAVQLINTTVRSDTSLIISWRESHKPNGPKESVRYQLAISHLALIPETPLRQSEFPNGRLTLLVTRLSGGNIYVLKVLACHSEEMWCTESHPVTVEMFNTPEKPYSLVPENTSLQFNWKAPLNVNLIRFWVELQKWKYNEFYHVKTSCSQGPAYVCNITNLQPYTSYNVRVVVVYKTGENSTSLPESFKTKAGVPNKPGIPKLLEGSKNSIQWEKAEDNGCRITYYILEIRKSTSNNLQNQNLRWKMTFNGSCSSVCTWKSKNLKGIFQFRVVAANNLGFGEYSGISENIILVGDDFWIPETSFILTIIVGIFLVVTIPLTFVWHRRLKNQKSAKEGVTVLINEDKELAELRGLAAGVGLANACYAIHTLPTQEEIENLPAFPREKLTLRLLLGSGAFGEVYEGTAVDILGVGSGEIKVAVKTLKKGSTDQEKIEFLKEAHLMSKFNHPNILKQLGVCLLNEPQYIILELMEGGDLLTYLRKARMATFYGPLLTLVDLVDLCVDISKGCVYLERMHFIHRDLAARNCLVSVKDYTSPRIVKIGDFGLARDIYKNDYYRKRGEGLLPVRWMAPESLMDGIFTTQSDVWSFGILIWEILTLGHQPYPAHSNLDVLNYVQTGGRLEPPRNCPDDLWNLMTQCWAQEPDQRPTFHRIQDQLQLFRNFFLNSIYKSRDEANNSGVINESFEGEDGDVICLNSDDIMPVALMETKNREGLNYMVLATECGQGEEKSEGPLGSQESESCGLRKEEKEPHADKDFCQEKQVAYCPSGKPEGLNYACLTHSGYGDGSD

SMILES | IC50 (human DYRK2 (GST-DYRK2)) [nM] | DYRK2 inhibitory activity (SAR, in words) (human DYRK2 (GST-DYRK2)) | IC50 ([2]; TR-FRET assay of Example 3) [nM] | haspin inhibitory activity (SAR, in words) [2] | other results
COc1ccc2nc3ccc(OC)cc3c(SCCCN)c2c1 [LDN-192960] | – | – | – | – | IC50 (ROS): 1600 nM; IC50 (HIPK2): 1300 nM; IC50 (PIM2): 56000 nM; IC50 (TRKB): 91000 nM; IC50 (HIPK1): 1400 nM; inhibition at 10 µM (haspin): 100%; number of other kinases inhibited by ≧90% [1]: ten; IC50 (PIM1): 720 nM
COc1cc2c(SCCCN)c3ccccc3nc2cc1Cl [LDN-209957] | < 10000 | not tolerated | < 100 | still quite active | –
COc1ccc2nc3ccccc3c(SCCCN3C(=O)c4ccccc4C3=O)c2c1 [LDN-211849] | < 1000 | – | < 10000 | significant loss of activity | –
COc1cc2nc3ccccc3c(SCCCN)c2cc1OC [LDN-192965] | > 10000 | loss in activity | > 20000 | loss of activity | –
COc1ccc2nc(-c3ccccc3)cc(SCCCN)c2c1 [LDN-209964] | > 10000 | – | < 10000 | – | –
NCCCSc1c2ccccc2nc2ccccc12 [LDN-209961] | < 10000 | very detrimental | < 10000 | inhibitory activity was dramatically reduced | –
COc1ccc2nc3ccc(OC)cc3c(OCCCN)c2c1 [LDN-209963] | > 20000 | detrimental to DYRK2 inhibition | > 20000 | detrimental | –
COc1ccc2nc3ccc(OC)cc3c(SCCCN3C(=O)c4ccccc4C3=O)c2c1 [LDN-211848] | – | moderately potent | < 10000 | significant loss of activity | –
COc1ccc2nc3ccc(Cl)cc3c(SCCCN)c2c1 [LDN-209929] | < 10000 | not as tolerated | < 100 | – | selectivity for haspin versus DYRK2 [2]: 180 fold; IC50 ([2]; text of SAR study): < 60 nM
CCN(CC)CCCNc1c2ccccc2nc2c(OC)cc(OC)cc12 [LDN-209840] | > 1000 | – | > 20000 | – | –
COc1cc(OC)c2nc3ccccc3c(NCCCN(C)C)c2c1 [LDN-209839] | > 10000 | – | > 20000 | – | –
COc1ccc2nc3ccc(C)cc3c(SCCCN)c2c1 [LDN-209928] | < 500 | not as tolerated | < 100 | – | IC50 ([2]; text of SAR study): < 100 nM
COc1ccc2nc3ccc(OC)cc3c(CCCCN)c2c1 [LDN-209973] | < 500 | tolerated | < 50 | retained potent inhibitory activity | reduction in DYRK2 potency (human DYRK2 (GST-DYRK2); relative to LDN-192960 (sulfur replaced with methylene)): 5 fold

The next lines start with results.

IC50 (human DYRK2 (GST-DYRK2)) [nM] | DYRK2 inhibitory activity (SAR, in words) (human DYRK2 (GST-DYRK2)) | IC50 ([2]; TR-FRET assay of Example 3) [nM] | haspin inhibitory activity (SAR, in words) [2] | SMILES | other results
< 200 | significant erosion of potency | < 50 | – | COc1ccc2nc3ccccc3c(SCCCN)c2c1 [LDN-209856] | IC50 ([2]; text of SAR study): < 100 nM
< 500 | – | < 200 | reduced activity | COc1ccc2nc3ccc(OC)cc3c(SCCN)c2c1 [LDN-209958] | –
< 500 | – | < 50 | slight decrease in activity | COc1ccc2nc3ccc(OC)cc3c(SCCCN(C)C)c2c1 [LDN-212055] | –
< 10000 | – | < 500 | – | COc1ccc2nc3c(c(SCCCN)c2c1)CCCC3 [LDN-211840] | –
< 200 | – | < 10 | equally potent | CNCCCSc1c2cc(OC)ccc2nc2ccc(OC)cc12 [LDN-209960] | –
< 10000 | detrimental to DYRK2 inhibition | < 5000 | detrimental | COc1ccc2nc3ccc(OC)cc3c(NCCCN)c2c1 [LDN-209962] | –
< 200 | – | < 50 | – | NCCCSc1c2cc(O)ccc2nc2ccc(O)cc12 [LDN-209838] | –
< 50 | – | < 50 | only a minimal impact on potency | COc1ccc2nc3ccc(OC)cc3c(SCCCCN)c2c1 [LDN-209959] | –
